Test results taken from PMC12711161, “Design, Synthesis, and Biological Characterization of Macromolecular Ester Prodrugs of a Selective Cyclooxygenase‐2 Inhibitor” (Chemmedchem, 2025).
Where two headings read alike, the source gives them in different places.

Columns and labels:
COX‐1 [1] = target: T1, COX‐1 (Mus musculus, UniProt P22437); details: J774 murine macrophage assay, cited from earlier work
T1 construct: endogenous in cells; host or cells: J774 murine monocyte/macrophage cell line
T1 sequence (P22437 27-602): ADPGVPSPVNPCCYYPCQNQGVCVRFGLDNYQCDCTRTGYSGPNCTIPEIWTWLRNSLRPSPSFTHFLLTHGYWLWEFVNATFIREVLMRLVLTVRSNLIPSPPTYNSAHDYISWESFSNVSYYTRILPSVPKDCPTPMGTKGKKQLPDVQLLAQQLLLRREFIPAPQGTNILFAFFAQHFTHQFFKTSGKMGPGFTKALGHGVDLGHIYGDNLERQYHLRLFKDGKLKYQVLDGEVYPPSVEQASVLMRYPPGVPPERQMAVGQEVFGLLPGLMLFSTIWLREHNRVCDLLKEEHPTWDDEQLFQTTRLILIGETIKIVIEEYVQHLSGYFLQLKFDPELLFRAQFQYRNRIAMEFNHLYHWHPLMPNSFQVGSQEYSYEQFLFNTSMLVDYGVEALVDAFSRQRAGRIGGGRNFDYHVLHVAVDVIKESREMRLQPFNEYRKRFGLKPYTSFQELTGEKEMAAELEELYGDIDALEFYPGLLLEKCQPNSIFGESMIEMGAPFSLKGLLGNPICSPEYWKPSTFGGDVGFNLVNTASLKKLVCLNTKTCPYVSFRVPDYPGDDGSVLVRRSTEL

COX‐2 [2] = target: T2, COX‐2 (Mus musculus, UniProt Q05769); assay: COX‐2 inhibition of PGE2 production, LPS-stimulated J774 murine macrophage assay; assay type: cell-based; details: for IC50: J774 cells, LPS 10 μg/mL 24 h, PGE2 by EIA, mean of three experiments; for COX‐1/COX‐2 [SI]: selectivity index IC50(COX‐1)/IC50(COX‐2)
T2 construct: endogenous in cells; host or cells: J774 murine monocyte/macrophage cell line, LPS-stimulated
T2 sequence (Q05769 18-604): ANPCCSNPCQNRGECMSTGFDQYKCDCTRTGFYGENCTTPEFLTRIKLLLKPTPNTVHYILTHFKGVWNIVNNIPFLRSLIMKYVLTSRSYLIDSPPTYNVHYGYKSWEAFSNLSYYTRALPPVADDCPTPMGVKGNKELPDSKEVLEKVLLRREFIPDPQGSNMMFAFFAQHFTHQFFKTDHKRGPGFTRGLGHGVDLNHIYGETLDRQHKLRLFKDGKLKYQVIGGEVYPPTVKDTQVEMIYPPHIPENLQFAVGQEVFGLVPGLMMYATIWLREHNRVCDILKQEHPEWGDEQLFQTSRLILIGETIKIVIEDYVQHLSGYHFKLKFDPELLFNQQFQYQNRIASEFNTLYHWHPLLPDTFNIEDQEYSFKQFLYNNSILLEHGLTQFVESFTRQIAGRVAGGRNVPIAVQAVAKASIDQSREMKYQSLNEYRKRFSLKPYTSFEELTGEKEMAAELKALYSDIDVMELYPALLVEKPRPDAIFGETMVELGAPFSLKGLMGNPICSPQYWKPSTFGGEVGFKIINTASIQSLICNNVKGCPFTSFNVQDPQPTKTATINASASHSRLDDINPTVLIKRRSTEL
Protocol: This required that hydrolysis was mandatory to obtain the possible release of bioactive compounds from the macromolecular ester prodrugs. […] All these considerations led us to consider the importance of the possible hydrolysis process, which could lead to release the bioactive compounds from the macromolecular ester prodrug 13a.
(§1) The cell line was grown in DMEM supplemented with 2 mM glutamine, 25 mM HEPES, 100 units mL^–1 penicillin, 100 μg mL^–1 streptomycin, 10% fetal bovine serum (FBS), and 1.2% sodium pyruvate. Cells were plated in 24‐well culture plates at a density of 2.5 × 10^5 cells mL^–1 and allowed to adhere at 37 °C in 5% CO2 for 2 h. Immediately before the experiments, the culture medium was replaced with fresh medium, and cells were stimulated as previously described.^[ [64] ^] The evaluation of COX‐1 inhibitory activity was achieved by pretreating cells with test compounds (10 μM) for 15 min and then incubating them at 37 °C for 30 min with 15 μM arachidonic acid to activate the constitutive COX. At the end of the incubation, the supernatants were collected to measure PGE2 levels by an enzyme immuno‐assay (EIA). To evaluate COX‐2 activity, cells were stimulated for 24 h with Escherichia coli lipopolysaccharide (LPS, 10 μg mL^–1) to induce COX‐2, in the absence or presence of test compounds (0.001–10 μM). The supernatants were collected for the measurement of PGE2 by means of EIA. Celecoxib was utilized as a reference compound for the selectivity index. Triplicate wells were used for the various treatment conditions in the cell culture assay throughout the experiments. Results are expressed as the mean of three experiments of the % inhibition of PGE2 production by test compounds with respect to control samples. Data fit was obtained using the sigmoidal dose–response equation (variable slope) (GraphPad software). The IC50 values were calculated by the GraphPad Instat program (GraphPad software).

COX‐1 [3] = target: T1, COX‐1; assay: COX‐1 inhibition of PGE2 production, arachidonic acid-stimulated J774 murine macrophage assay; assay type: cell-based; details: J774 cells, 15 μM arachidonic acid, PGE2 by EIA, mean of three experiments
Protocol: All tested compounds didn’t inhibit the production of PGE2 via COX‐1 in AA‐stimulated J774 macrophages.
as §1

COX‐2 [4] = target: T2, COX‐2; details: ref [24], cited from earlier work

| SMILES | IC50 (COX‐2 [2]) [µM] | IC50 (COX‐1 [3]) [µM] | COX‐1/COX‐2 [SI] (COX‐2 [2]) | other results |
| --- | --- | --- | --- | --- |
| Cc1c(CCOCCO)cc(-c2ccc(S(C)(=O)=O)cc2)n1-c1ccc(F)cc1 [Compound 7b] | – | – | – | IC50 (COX‐1 [1]; ref [27]): > 10 µM |
| COc1cc(/C=C/C(=O)O)ccc1OCc1cn(CCOCCOCCOCCOCCOCCOCCc2cc(-c3ccc(S(C)(=O)=O)cc3)n(-c3ccc(F)cc3)c2C)nn1 [Compound 12b, (E)‐3‐(4‐((1‐(20‐(1‐(4‐Fluorophenyl)‐2‐methyl‐5‐(4‐(methylsulfonyl)phenyl)‐1H‐pyrrol‐3‐yl)‐3,6,9,12,15,18‐hexaoxaicosyl)‐1H‐1,2,3‐triazol‐4‐yl)methoxy)‐3‐methoxyphenyl)acrylic acid] | > 10 | > 10 | – | inhibition of PGE2 production via COX‐2 (in words) (COX‐2 [2]; LPS‐stimulated macrophages): completely devoid of COX‐2 inhibitory activity |
| Cc1c(CCO)cc(-c2ccc(S(C)(=O)=O)cc2)n1-c1ccc(F)cc1 [Compound 21] | – | – | – | IC50 (COX‐1 [1]; ref [24]): > 10 µM; IC50 (COX‐2 [4]; J774 murine macrophage assay): 0.07 µM; COX‐1/COX‐2 [SI] (COX‐2 [4]; selectivity index IC50(COX‐1)/IC50(COX‐2)): >142.8 |

More lines, main results first:

| IC50 (COX‐2 [2]) [µM] | IC50 (COX‐1 [3]) [µM] | COX‐1/COX‐2 [SI] (COX‐2 [2]) | SMILES | other results |
| --- | --- | --- | --- | --- |
| 0.05 | > 10 | >200 | COc1cc(/C=C/C(=O)O)ccc1OCc1cn(CCOCCOCCOCCOCCOCCOCCC(=O)OCCOCCc2cc(-c3ccc(S(C)(=O)=O)cc3)n(-c3ccc(F)cc3)c2C)nn1 [Compound 13b, (E)‐3‐(4‐((1‐(27‐(1‐(4‐Fluorophenyl)‐2‐methyl‐5‐(4‐(methylsulfonyl)phenyl)‐1H‐pyrrol‐3‐yl)‐21‐oxo‐3,6,9,12,15,18,22,25‐octaoxaheptacosyl)‐1H‐1,2,3‐triazol‐4‐yl)methoxy)‐3‐methoxyphenyl)acrylic acid] | – |
| 0.015 | > 10 | >666.7 | Cc1c(CCOCCOC(=O)CCOCCOCCOCCOCCOCCOCCN=[N+]=[N-])cc(-c2ccc(S(C)(=O)=O)cc2)n1-c1ccc(F)cc1 [Compound 14, 2‐(2‐(1‐(4‐Fluorophenyl)‐2‐methyl‐5‐(4‐(methylsulfonyl)phenyl)‐1H‐pyrrol‐3‐yl)ethoxy)ethyl 1‐azido‐3,6,9,12,15,18‐hexaoxahenicosan‐21‐oate] | – |
| 0.5 | > 10 | >20 | Cc1c(CCOCCOCCOCCOCCOCCOCCN=[N+]=[N-])cc(-c2ccc(S(C)(=O)=O)cc2)n1-c1ccc(F)cc1 [Compound 19, 3‐(20‐Azido‐3,6,9,12,15,18‐hexaoxaicosyl)‐1‐(4‐fluorophenyl)‐2‐methyl‐5‐(4‐(methylsulfonyl)phenyl)‐1H‐pyrrole] | – |
